Assay results taken from article PMC7534258, “Novel temporin L antimicrobial peptides: promoting self-assembling by lipidic tags to tackle superbugs” (Journal of Enzyme Inhibition and Medicinal Chemistry, 2020).
Entries after “also recorded” stand apart in the source; their conditions may differ. Where a SMILES comes first, the peptide text is derived from it. [ ]: non-standard residue; d: D form. The star is where a group is joined. Phe(4-NH2) = Nc1ccc(C[C@H](N)C(=O)O)cc1; Pentanoyl = CCCCC(=O)*

What was measured:
[1] = Critical aggregation concentration, Nile red fluorescence; type: physicochemical; conditions: aqueous solution, pH 7, Nile red, 1–200 µM peptide
Procedure: The solvatochromic fluorescent probe Nile red is widely used to determine the CAC of self-assembling peptides. […] Since Nile red is poorly soluble in water, there is a large preference to partition aggregates, which offer hydrophobic binding sites. Initially, 1 mM methanolic Nile red was prepared. Then, the methanolic Nile red was diluted with water in order to have a final concentration of 500 nM (solution A). The peptides 1B, 2B, 3B, C, were prepared as follows[39]: peptide stock solutions (0.4 mM) were prepared by dissolving the single peptides in water (1B, C) or tetrahydrofuran (3B, 2B) and sonicating for 15 min. Different aliquots were taken to prepare solutions of each peptide at different concentrations (1, 5, 10, 15, 20, 30, 50, 100 and 200 µM). Then, all solutions were diluted with water, sonicated for 15 min and freeze-dried. Finally, the peptide powders were dissolved with the right volume of solution A and allowed to stand in the dark place for 1 h before measurement. Emission spectra for each solution were measured by a Cary Eclipse Varian spectrometer. Spectra were taken between 570 and 700 nm at a slit width of 5 nm, using an excitation wavelength of 550 nm and a 10 nm slit width. The measurements were performed in triplicate. The data were analysed by plotting the maximum emission fluorescence corresponding wavelength (y) as a function of peptide concentration (x) and fitting with the sigmoidal Boltzmann equation: y=A1+A2/1+e^(x−x0/Δx)+A2 where the variables A1 and A2 correspond to the upper and lower limits of the sigmoid, x0 is the inflection point of the sigmoid and Δx is the parameter, which characterises the steepness of the function. The sigmoidal plot allows calculating the CAC value at x0.

ANTS/DPX leakage assay = conditions: ANTS/DPX-loaded LUVs, Gram-positive and Gram-negative mimicking
Procedure: Large unilamellar vesicles (LUVs) and small unilamellar vesicles (SUVs) consisting of DOPG/CL (58/42 ratio in moles) and DOPG/DOPE/CL (63/23/12 ratio in moles), mimic the Gram-positive membrane and Gram-negative membrane, respectively. LUVs were prepared using the extrusion method as previously described. In particular, first lipid films were prepared by dissolving an appropriate amount of lipids in chloroform and fluorescent probes were added when necessary, then dried under a nitrogen gas stream and freeze-dried overnight. In all experiments, we used a final lipid concentration of 0.1 mM. For fluorescence experiments, buffer was added to dry lipid films and vortexed for 1 h; then the lipid suspension was freeze-thawed 6 times and extruded 10 times through polycarbonate membranes with 0.1 µm diameter pores to obtain LUVs. For circular dichroism measurements, peptide samples in SUVs were prepared as reported in the following protocol. Lipids were dissolved in chloroform and added to an equal volume of peptide solution dissolved in TFE containing appropriate peptide concentration. The samples were vortexed and lyophilised overnight. The dry samples were rehydrated with phosphate buffer 5 mM, pH 7.4 for 1 h and sonicated for 30 min.
The ANTS/DPX leakage assay was used to measure the ability of peptide to permeabilise and induce leakage of encapsulated dyes. After lipid films were prepared as previously described, ANTS (12.5 mM) and DPX (45 mM) were dissolved in 2 ml water, were added to lipid films and then lyophilised overnight. The lipid films with encapsulated ANTS and DPX were hydrated with PBS 1X buffer, vortexed for 1 h and then treated to obtain LUVs. The non-encapsulated ANTS and DPX were removed by gel filtration using a Sephadex G-50 column (1.5 cm × 10 cm) at room temperature. To start up the leakage experiment, a 2 mM peptide stock solution was prepared and LUVs were titrated with the peptide. Samples were excited at 385 nm (slit width, 5 nm) and fluorescence emission was recorded at 512 nm (slit width, 5 nm). After the addition of peptide, we evaluated leakage of encapsulated ANTS through a change in fluorescence spectra of ANTS and DPX. In particular, leakage is associated to an increase in ANTS fluorescence at 512 nm. Complete release of ANTS was obtained by using 0.1% Triton X, which caused the total destruction of liposomes. The percentage of leakage was calculated as % leakage =(Fi−F0)/(Ft−F0), where F0 represents the fluorescence of intact LUVs before the addition of peptide, and Fi and Ft denote the intensities of the fluorescence achieved after peptide and Triton-X treatment, respectively.

P. aeruginosa ATCC 27853 = assay: Broth microdilution MIC, reference strain; type: cell-based, Pseudomonas aeruginosa
Procedure: Staphylococcus aureus ATCC 25923, Pseudomonas aeruginosa ATCC 27853 and Klebsiella pneumoniae ATCC BAA-1705 (carbapenemase producer) were obtained from the American Type Culture Collection (Rockville, MD).
(§1) Identification was performed by sub-culturing on Tryptic Soy Agar (TSA, Becton Dickinson) and by biochemical characterisation using the Vitek II system (Biomerieux). The antimicrobial susceptibility testing of all isolates was determined using Vitek II system and results were interpreted according to European Committee on Antimicrobial Susceptibility Testing (EUCAST version 9.0, 2019). P. aeruginosa was cultured in Brain Heart Infusion broth (BHI, OXOID), S. aureus and K. pneumoniae were cultured in Tryptic Soya broth (TSB, OXOID), under aerobic conditions at 37 °C, for 24 h on an orbital shaker at 200 rpm.
(§2) Minimal inhibitory concentrations (MIC) of all the peptides were determined in Mueller–Hinton medium by the broth microdilution assay, following the procedure already described[22]^,[34]. The compounds were added to bacterial suspension in each well yielding a final cell concentration of 1 × 10^6 CFU/ml and a final compound concentration ranging from 0.78 to 100 µM. Negative control wells were set to contain bacteria in Mueller–Hinton broth plus the amount of vehicle (ethanol) used to dilute each compound. Positive controls included vancomycin (2 µg/ml), tobramycin (4 µg/ml), gentamycin (4 µg/ml), and imipenem (8 µg/ml).

Pa3 = assay: microbe, parasite or virus in culture; conditions: multidrug resistant clinical isolate
Procedure: (§3) Clinical strains of P. aeruginosa (Pa1, Pa2 and Pa3), K. pneumoniae (KpCR1, KpCR2 and KpCR3), and S. aureus (Sa1, Sa2 and Sa3) were isolated from bloodstream or pulmonary infections, and belong to a collection of bacterial strains established between 2010 and 2018 at the Department of Molecular Medicine and Medical Biotechnologies (University Federico II, Naples) for research use.
as §1, §2

Sa2 = assay: microbe, parasite or virus in culture
Procedure: as §3, §1, §2

Sa3 = assay: microbe, parasite or virus in culture; conditions: 24 h
Procedure: as §3, §1, §2

KpCR1 = assay: microbe, parasite or virus in culture; conditions: carbapenem-resistant clinical isolate
Procedure: as §3, §1, §2

Pa1 = assay: microbe, parasite or virus in culture; conditions: multidrug resistant clinical isolate
Procedure: as §3, §1, §2

Sa1 = assay: microbe, parasite or virus in culture
Procedure: as §3, §1, §2

KpCR3 = assay: microbe, parasite or virus in culture; conditions: carbapenem-resistant clinical isolate
Procedure: as §3, §1, §2

Pa2 = assay: microbe, parasite or virus in culture; conditions: multidrug resistant clinical isolate
Procedure: as §3, §1, §2

KpCR2 = assay: microbe, parasite or virus in culture; conditions: carbapenem-resistant clinical isolate
Procedure: as §3, §1, §2

Compound | CAC (critical aggregation concentration) [1] | membrane leakage ability (in words) (ANTS/DPX leakage assay) | Antimicrobial activity (MIC) P. aeruginosa ATCC 27853 (P. aeruginosa ATCC 27853; ATCC 27853) [µM] | Antimicrobial activity (MIC) Pa3 (Pa3) [µM] | Antimicrobial activity (MIC) Sa2 (Sa2; 24 h) [µM] | Antimicrobial activity (MIC) Sa3 (Sa3) [µM] | Antimicrobial activity (MIC) KpCR1 (KpCR1) [µM] | Antimicrobial activity (MIC) Pa1 (Pa1) [µM] | Antimicrobial activity (MIC) Sa1 (Sa1; 24 h) [µM] | Antimicrobial activity (MIC) KpCR3 (KpCR3) [µM] | Antimicrobial activity (MIC) Pa2 (Pa2) [µM] | Antimicrobial activity (MIC) KpCR2 (KpCR2) [µM] | Antimicrobial activity (MIC) P. aeruginosa ATCC 27853 (P. aeruginosa ATCC 27853; 100% growth inhibition after 16–18 h at 37 °C) [µM] | Antimicrobial activity (MIC) Sa2 (Sa2; MRSA clinical isolate) [µM] | Antimicrobial activity (MIC) Sa1 (Sa1; MRSA clinical isolate) [µM]
CCCCC(=O)Nc1ccc(C[C@H](N)C(=O)N[C@H](C(=O)N2CCC[C@H]2C(=O)N[C@@H](Cc2c[nH]c3ccccc23)C(=O)N[C@@H](Cc2ccccc2)C(=O)N[C@@H](CO)C(=O)N[C@@H](CCCCN)C(=O)N[C@@H](Cc2ccccc2)C(=O)N[C@H](CC(C)C)C(=O)N[C@H](CCCCN)C(=O)N[C@@H](CCCNC(=N)N)C(=O)N[C@H](C(=O)N[C@@H](CC(C)C)C(N)=O)[C@@H](C)CC)C(C)C)cc1 [C, H-Phe(4-NHCO(CH2)3CH3)-Val-Pro-Trp-Phe-Ser-Lys-Phe-DLeu-DLys-Arg-Ile- Leu-NH2] (H-[Phe(4-NH2)](Pentanoyl)VPWFSKF[dL][dK]RIL-NH2) | 39.5 µM | intermediate ability to produce leakage | 25 | 25 | 12.5 | 12.5 | 12.5 | 25 | 12.5 | 12.5 | 25 | 12.5 | – | – | –
CC[C@H](C)[C@H](NC(=O)[C@H](CCCNC(=N)N)NC(=O)[C@@H](CCCCN)NC(=O)[C@@H](CC(C)C)NC(=O)[C@H](Cc1ccccc1)NC(=O)[C@H](CCCCN)NC(=O)[C@H](CO)NC(=O)[C@H](Cc1ccccc1)NC(=O)[C@H](Cc1c[nH]c2ccccc12)NC(=O)[C@@H]1CCCN1C(=O)[C@@H](NC(=O)[C@@H](N)Cc1ccccc1)C(C)C)C(=O)N[C@@H](CC(C)C)C(N)=O [Compound 1B, H-Phe-Val-Pro-Trp-Phe-Ser-Lys-Phe-DLeu-DLys-Arg-Ile-Leu-NH2] (H-FVPWFSKF[dL][dK]RIL-NH2) | unable to aggregate under the range of concentrations investigated; also recorded: not aggregated at the concentration tested | lowest leakage ability | – | 12.5 | – | 6.25 | 12.5 | 12.5 | – | 12.5 | 12.5 | 12.5 | 12.5 | 12.5 | 12.5
